How the values were obtained:
[1] = tested on: total number of colonies of the Chinese tube whip shrimps; assay: Total sterilization effect experiment: total number of colonies (aerobic plate count) of photodynamically treated shrimp in 4° C. storage; format: cell-based; settings: 20 μmol/L
Experimental: The total sterilization effect experiment and sensory evaluation of the Chinese tube whip shrimps obtained from Application Example 1, Comparative Application Example 1, and Comparative Application Example 2 were carried out. The specific steps are as follows: • (1) the Chinese tube whip shrimps obtained from Application Example 1, Comparative Application Example 1, and Comparative Application Example 2 were put into a fresh-keeping bag of a fresh-keeping box, and stored in a refrigerator at 4° C.; • (2) when stored for 2, 4, 6, 8, and 10 days, according to the method specified in the national standard GB/T 4789.2-2016 Food Microbiological Examination—Aerobic Plate Count, the total number of colonies of the Chinese tube whip shrimps treated in step (1) was measured; and • (3) when stored for 2, 4, 6, 8, and 10 days, a sensory evaluation team conducted sensory scores on the stored shrimps; the sensory score team was composed of 10 strictly trained personnel to evaluate the appearance, odor, and posture of the processed Chinese tube whip shrimps, and the average value was taken. The scoring criteria are shown in Table 1, and the sensory score result is the sum of the 3 indicator scores with a total score of 18 indicating absolute freshness and 9 indicating significant quality deterioration.
From this, it can be seen that the shelf life of refrigerated Chinese tube whip shrimp in Comparative Application Example 1 and Comparative Application Example 2 is only 4 days.

[2] = Singlet oxygen generation ability, ABDA absorbance decay method; format: physicochemical; settings: 5 μmol/L compound, 50 μmol/L ABDA, aqueous solution, blue LED 470 nm, 20 mW/cm^2, 180 s; FIG. 4

Compound	shelf life of refrigerated Chinese tube whip shrimp ([1]; soaking 10 min, blue LED 10 W, 470 nm, 120 s, stored at 4° C., end of shelf life by total number of colonies)	singlet oxygen generation ability [2]	bacterial growth (total number of colonies) ([1]; soaking 10 min, blue LED 10 W, 470 nm, 120 s, stored at 4° C. for 2-10 days, vs Comparative Application Examples 1 and 2, p<0.05, FIG. 6)	freshness level by total number of colonies ([1]; after 10 days of refrigeration at 4° C., blue LED 10 W, 470 nm, 120 s)	freshness level by total number of colonies ([1]; on the 4th day of refrigeration at 4° C., blue LED 10 W, 470 nm, 120 s)	shelf life of fresh shrimp (in words) ([1]; photodynamic treatment of Chinese tube whip shrimp, stored at 4° C.)
COc1cc(/C=C/C(=O)CC(=O)/C=C/c2ccc(O)c(OC)c2)ccc1O [natural curcumin, curcumin, reference compound]	4 days	–	–	–	–	–
COc1cc(/C=C/C=C/C(O)=C/C(=O)/C=C/c2ccc(Br)c(OC)c2)ccc1Br [Embodiment 1]	–	higher than that of the single bromine substituted curcumin derivative obtained in Embodiment 2	significantly inhibited	approached second-level freshness	first-level freshness (the shrimp with a total number of colonies of ≤10^5 CFU/g is considered as first-level freshness)	significantly prolonged
